Measurements published in publication PMC11855478, “Bicyclic N,S-Acetals Containing Fused Cysteine-Amide System as New Heterocyclic Class Targeting Human Farnesyltransferase (FTase-h)” (International Journal of Molecular Sciences, 2025).

Key:
[1] = tested on: SF-268 (CNS Cancer); assay: NCI one dose, SF-268; format: cell-based, human; settings: SF-268, 1.00E-5 Molar one dose
Procedure: (§1) 3.4. Cell Proliferation Assay
(§2) Selected compounds were tested on a panel of 60 human cancer cell lines at the National Cancer Institute (NCI), Germantown, MD, USA. The cytotoxicity studies were conducted using a 48 h exposure protocol using the sulfo-rhodamine B assay.

[2] = tested on: CAKI-1 (Renal Cancer); assay: NCI one dose, CAKI-1; format: cell-based, human; settings: CAKI-1, 1.00E-5 Molar one dose
Procedure: as §1, §2

[3] = tested on: SNB-75 (CNS Cancer); assay: NCI one dose, SNB-75; format: cell-based, human; settings: SNB-75, 1.00E-5 Molar one dose
Procedure: as §1, §2

[4] = tested on: CCRF-CEM (Leukemia); assay: NCI one dose, CCRF-CEM; format: cell-based, human; settings: 1.00E-5 Molar one dose
Procedure: as §1, §2

[5] = tested on: BT-549 (Breast Cancer); assay: NCI one dose, BT-549; format: cell-based, human; settings: BT-549, 1.00E-5 Molar one dose
Procedure: as §1, §2

[6] = tested on: NCI/ADR-RES (Ovarian Cancer); assay: NCI one dose, NCI/ADR-RES; format: cell-based, human; settings: 1.00E-5 Molar one dose
Procedure: as §1, §2

[7] = tested on: OVCAR-3 (Ovarian Cancer); assay: NCI one dose, OVCAR-3; format: cell-based, human; settings: OVCAR-3, 1.00E-5 Molar one dose
Procedure: as §1, §2

[8] = tested on: NCI-H460 (Non-Small Cell Lung Cancer); assay: NCI one dose, NCI-H460; format: cell-based, human; settings: NCI-H460, 1.00E-5 Molar one dose
Procedure: as §1, §2

[9] = tested on: U251 (CNS Cancer); assay: NCI one dose, U251; format: cell-based, human; settings: U251, 1.00E-5 Molar one dose
Procedure: as §1, §2

[10] = tested on: DU-145 (Prostate Cancer); assay: NCI one dose, DU-145; format: cell-based, human; settings: DU-145, 1.00E-5 Molar one dose
Procedure: as §1, §2

[11] = tested on: HCC-2998 (Colon Cancer); assay: NCI one dose, HCC-2998; format: cell-based, human; settings: HCC-2998, 1.00E-5 Molar one dose
Procedure: as §1, §2

[12] = tested on: RXF 393 (Renal Cancer); assay: NCI one dose, RXF 393; format: cell-based, human; settings: RXF 393, 1.00E-5 Molar one dose
Procedure: as §1, §2

[13] = tested on: K-562 leukaemia cells; assay: NCI one dose, K-562; format: cell-based, human; settings: K-562, 1.00E-5 Molar one dose
Procedure: as §1, §2

[14] = tested on: NCI-H23 (Non-Small Cell Lung Cancer); assay: NCI one dose, NCI-H23; format: cell-based, human; settings: NCI-H23, 1.00E-5 Molar one dose
Procedure: as §1, §2

[15] = tested on: A498 (Renal Cancer); assay: NCI one dose, A498; format: cell-based, human; settings: A498, 1.00E-5 Molar one dose
Procedure: as §1, §2

[16] = tested on: SF-539 (CNS Cancer); assay: NCI one dose, SF-539; format: cell-based, human; settings: SF-539, 1.00E-5 Molar one dose
Procedure: as §1, §2

[17] = tested on: panel of 60 human cancer cell lines; assay: NCI 60 cell panel one dose screen (whole panel); format: cell-based; parameters: Delta (One Dose Mean Graph): unit not given here; settings: 1.00E-5 Molar one dose; for Range (One Dose Mean Graph): in % (unit assumed); for Mean Growth Percent: mean over tested cell lines
Procedure: as §1
Selected compounds were tested on a panel of 60 human cancer cell lines at the National Cancer Institute (NCI), Germantown, MD, USA. The cytotoxicity studies were conducted using a 48 h exposure protocol using the sulfo-rhodamine B assay. […]
X. NCI One Dose Mean Graph of sulfides 4a(A -J) and 4b(A-J)
The entire series of sulfides regrouping twenty synthesized FTI-candidates (4aA-J, 4bA-J) were selected by the National Cancer Institute (NCI) for evaluation of their antiproliferative activity against 60 cancer cell lines (see the followings twenty pages for full evaluation reports). […]
inhibiting 36% of the NCI-H522 cells. Such difference between IC50 on human FTase in the nanomolar range and IC50 on cancer cell growth in the micromolar range is characteristic to potent FTIs and was reported previously on different series of compounds (see for example ref erence in the references part […]
Of interest, none of the tested compounds at a high single dose (10 µM) in the full NCI 60 cell panel has shown a cytotoxic profile. […]
inhibitory potential on FTase raise good hope for further investigation of these series as agents fighting

[18] = tested on: MOLT-4 (Leukemia); assay: NCI one dose, MOLT-4; format: cell-based, human; settings: MOLT-4, 1.00E-5 Molar one dose
Procedure: as §1, §2

[19] = tested on: SK-OV-3 (Ovarian Cancer); assay: NCI one dose, SK-OV-3; format: cell-based, human; settings: SK-OV-3, 1.00E-5 Molar one dose
Procedure: as §1, §2

[20] = tested on: HCT-116 (Colon Cancer); assay: NCI one dose, HCT-116; format: cell-based, human; settings: HCT-116, 1.00E-5 Molar one dose
Procedure: as §1, §2

[21] = tested on: NCI-H322M (Non-Small Cell Lung Cancer); assay: NCI one dose, NCI-H322M; format: cell-based, human; settings: 1.00E-5 Molar one dose
Procedure: as §1, §2

[22] = tested on: HCT-15 (Colon Cancer); assay: NCI one dose, HCT-15; format: cell-based, human; settings: HCT-15, 1.00E-5 Molar one dose
Procedure: as §1, §2

[23] = tested on: SK-MEL-5 (Melanoma); assay: NCI one dose, SK-MEL-5; format: cell-based, human; settings: SK-MEL-5, 1.00E-5 Molar one dose
Procedure: as §1, §2

[24] = tested on: OVCAR-5 (Ovarian Cancer); assay: NCI one dose, OVCAR-5; format: cell-based, human; settings: OVCAR-5, 1.00E-5 Molar one dose
Procedure: as §1, §2

[25] = tested on: OVCAR-4 (Ovarian Cancer); assay: NCI one dose, OVCAR-4; format: cell-based, human; settings: OVCAR-4, 1.00E-5 Molar one dose
Procedure: as §1, §2

[26] = tested on: A549/ATCC (Non-Small Cell Lung Cancer); assay: NCI one dose, A549/ATCC; format: cell-based, human; settings: 1.00E-5 Molar one dose
Procedure: as §1, §2

[27] = tested on: SK-MEL-28 (Melanoma); assay: NCI one dose, SK-MEL-28; format: cell-based, human; settings: SK-MEL-28, 1.00E-5 Molar one dose
Procedure: as §1, §2

[28] = tested on: SF-295 (CNS Cancer); assay: NCI one dose, SF-295; format: cell-based, human; settings: SF-295, 1.00E-5 Molar one dose
Procedure: as §1, §2

[29] = tested on: SK-MEL-2 (Melanoma); assay: NCI one dose, SK-MEL-2; format: cell-based, human; settings: SK-MEL-2, 1.00E-5 Molar one dose
Procedure: as §1, §2

[30] = tested on: HT29 (Colon Cancer); assay: NCI one dose, HT29; format: cell-based, human; settings: HT29, 1.00E-5 Molar one dose
Procedure: as §1, §2

[31] = tested on: SW-620 (Colon Cancer); assay: NCI one dose, SW-620; format: cell-based, human; settings: SW-620, 1.00E-5 Molar one dose
Procedure: as §1, §2

SMILES	Growth Percent [1] [%]	Growth Percent [2] [%]	Growth Percent [3] [%]	Growth Percent [4] [%]	Growth Percent [5] [%]	Growth Percent [6] [%]	Growth Percent [7] [%]	Growth Percent [9] [%]	Growth Percent [10] [%]	Growth Percent [11] [%]	Growth Percent [12] [%]	Growth Percent [13] [%]	Growth Percent [14] [%]	Growth Percent [15] [%]	Growth Percent [16] [%]	Delta (One Dose Mean Graph) [17]	Range (One Dose Mean Graph) [17]	Mean Growth Percent [17] [%]	Growth Percent [18] [%]	Growth Percent [19] [%]	also measured
COc1ccccc1CNC(=O)[C@@H]1CS[C@H]2c3ccccc3C(=O)N12 [4aG]	102.73	94.09	98.49	101.17	110.45	105.58	109.74	99.09	106.12	120.86	114.62	81.36	106.16	84.76	103.40	31.67	50.93	101.60	97.42	107.78	Growth Percent [8]: 110.17%; Growth Percent [20]: 105.23%; Growth Percent [21]: 100.55%; Growth Percent [22]: 107.09%; Growth Percent [23]: 103.84%; Growth Percent [24]: 112.94%; Growth Percent [25]: 106.91%; Growth Percent [26]: 78.79%; Growth Percent [27]: 116.98%; Growth Percent [28]: 100.33%; Growth Percent [29]: 96.50%; Growth Percent [30]: 77.01%; Growth Percent [31]: 105.78%
C[C@@]12SC[C@@H](C(=O)NCc3ccccc3C(F)(F)F)N1C(=O)c1ccccc12 [4bC]	103.76	84.55	96.49	88.01	104.97	101.64	115.46	91.69	102.05	105.71	101.10	87.85	99.44	79.95	100.26	25.73	45.90	95.29	74.60	100.95	Growth Percent [8]: 105.02%; Growth Percent [20]: 89.85%; Growth Percent [21]: 101.48%; Growth Percent [22]: 100.40%; Growth Percent [23]: 100.19%; Growth Percent [24]: 102.51%; Growth Percent [25]: 93.35%; Growth Percent [26]: 69.56%; Growth Percent [27]: 111.34%; Growth Percent [28]: 93.93%; Growth Percent [29]: 87.91%; Growth Percent [30]: 79.15%; Growth Percent [31]: 104.67%
O=C(NCc1cccc(C(F)(F)F)c1)[C@@H]1CS[C@H]2c3ccccc3C(=O)N12 [4aD]	96.16	97.61	75.92	99.20	92.70	92.62	104.21	94.74	110.52	121.37	114.41	89.33	100.33	103.16	101.49	22.37	46.64	97.10	86.93	88.01	Growth Percent [20]: 91.63%; Growth Percent [21]: 93.97%; Growth Percent [22]: 100.16%; Growth Percent [23]: 110.95%; Growth Percent [24]: 97.67%; Growth Percent [25]: 105.79%; Growth Percent [26]: 94.49%; Growth Percent [27]: 108.89%; Growth Percent [28]: 95.03%; Growth Percent [29]: 94.10%; Growth Percent [30]: 91.88%; Growth Percent [31]: 107.41%
